Assay results: patent US20240307299A1, “SELF-EMULSIFYING DRUG DELIVERY (SEDDS) FOR OPHTHALMIC DRUG DELIVERY” (priority 2015, published 2024)
Read-outs that look alike come from different tables or passages of the source.

System: New Zealand White female rabbits
Assay type: in vivo
Protocol: The ocular tolerability of the various pharmaceutical-grade excipients used in our formulations was evaluated in vivo using New Zealand White female rabbits. A total of ten test groups with three rabbits each were used to test the materials listed below in Table 16. Dosing in each group was done by instilling one drop of material at the lowest concentration into the left eye of the first rabbit. If not tolerated, dosing was stopped. If tolerated, one drop of the same concentration was instilled into the left eye of the second rabbit and then again for the third rabbit. If a concentration was tolerated by 3 rabbits, dosing continued in the same pattern with the next higher concentration, if applicable.
Sample compositions, specifically, the vehicle used to dilute the materials tested, are listed in the next table (Table 17).

Compound | Concentration at which the not tolerated finding was seen (lowest concentration not tolerated) | Concentration not tolerated (topical ocular, rabbits) | Concentration at which the not tolerated finding was seen (rabbit, in vivo) | Maximum Tolerated Concentration (rabbit, in vivo) | Reason Not Tolerated: Ocular discomfort (score) (rabbit, in vivo)
CC(O)CO (centres unmarked) [Propylene Glycol] | 10% | 10% | – | – | –
PEG 400 | – | – | 20% | 10 % w/w | +3, 1 Ocular discomfort seen at
PEG (polyethylene glycol) 300 [PEG 300] | – | – | 10% | – | –
polyoxyethylene sorbitan monooleate [PS80] | – | – | 40% | 30 % w/w | –
